# According to US12268697B2, “Oxysterols and methods of use thereof” (Sage Therapeutics, Inc., priority 2015, dated 2025):
# Biological target: T1, GlunN1/GluN2A glutamate receptors (Homo sapiens, UniProt Q05586+Q12879)
# T1 construct: expressed in transfected cells
# Assay: Whole-cell patch clamp of mammalian cells (Ionworks Barracuda, IWB), NMDA potentiation
# Assay type: cell-based
# Details: 3 μM test article; HEK293 cells expressing human GRIN1/GRIN2A; co-application with EC20 L-glutamate and 30 μM glycine
# Protocol: NMDA potentiation was assessed using either whole cell patch clamp of mammalian cells which expressed NMDA receptors.
# Whole-Cell Patch Clamp of Mammalian Cells (Ionworks Barracuda (IWB)
# The whole-cell patch-clamp technique was used to investigate the effects of compounds on GlunN1/GluN2A glutamate receptors expressed in mammalian cells.
# HEK293 cells were transformed with adenovirus 5 DNA and transfected with cDNA encoding the human GRIN1/GRIN2A genes. Stable transfectants were selected using G418 and Zeocin-resistance genes incorporated into the expression plasmid and selection pressure maintained with G418 and Zeocin in the medium. Cells were cultured in Dulbecco's Modified Eagle Medium/Nutrient Mixture (D-MEM/F-12) supplemented with 10% fetal bovine serum, 100 μg/ml penicillin G sodium, 100 μg/ml streptomycin sulphate, 100 μg/ml Zeocin, 5 μg/ml blasticidin and 500 μg/ml G418.
# Test article effects were evaluated in 8-point concentration-response format (4 replicate wells/concentration). […]
# • a) Intracellular solution (mM): 50 mM CsCl, 90 mM CsF, 2 mM MgCl2, 5 mM EGTA, 10 mM HEPES. […] Cell suspension will be pipetted into the wells (9 μL per well) of the PPC planar electrode. • b) Whole-cell recording configuration will be established via patch perforation with membrane currents recorded by on-board patch clamp amplifiers. • c) Two recordings (scans) will be performed. […]
# T1 sequence (Q12879 23-1464, other chains not shown): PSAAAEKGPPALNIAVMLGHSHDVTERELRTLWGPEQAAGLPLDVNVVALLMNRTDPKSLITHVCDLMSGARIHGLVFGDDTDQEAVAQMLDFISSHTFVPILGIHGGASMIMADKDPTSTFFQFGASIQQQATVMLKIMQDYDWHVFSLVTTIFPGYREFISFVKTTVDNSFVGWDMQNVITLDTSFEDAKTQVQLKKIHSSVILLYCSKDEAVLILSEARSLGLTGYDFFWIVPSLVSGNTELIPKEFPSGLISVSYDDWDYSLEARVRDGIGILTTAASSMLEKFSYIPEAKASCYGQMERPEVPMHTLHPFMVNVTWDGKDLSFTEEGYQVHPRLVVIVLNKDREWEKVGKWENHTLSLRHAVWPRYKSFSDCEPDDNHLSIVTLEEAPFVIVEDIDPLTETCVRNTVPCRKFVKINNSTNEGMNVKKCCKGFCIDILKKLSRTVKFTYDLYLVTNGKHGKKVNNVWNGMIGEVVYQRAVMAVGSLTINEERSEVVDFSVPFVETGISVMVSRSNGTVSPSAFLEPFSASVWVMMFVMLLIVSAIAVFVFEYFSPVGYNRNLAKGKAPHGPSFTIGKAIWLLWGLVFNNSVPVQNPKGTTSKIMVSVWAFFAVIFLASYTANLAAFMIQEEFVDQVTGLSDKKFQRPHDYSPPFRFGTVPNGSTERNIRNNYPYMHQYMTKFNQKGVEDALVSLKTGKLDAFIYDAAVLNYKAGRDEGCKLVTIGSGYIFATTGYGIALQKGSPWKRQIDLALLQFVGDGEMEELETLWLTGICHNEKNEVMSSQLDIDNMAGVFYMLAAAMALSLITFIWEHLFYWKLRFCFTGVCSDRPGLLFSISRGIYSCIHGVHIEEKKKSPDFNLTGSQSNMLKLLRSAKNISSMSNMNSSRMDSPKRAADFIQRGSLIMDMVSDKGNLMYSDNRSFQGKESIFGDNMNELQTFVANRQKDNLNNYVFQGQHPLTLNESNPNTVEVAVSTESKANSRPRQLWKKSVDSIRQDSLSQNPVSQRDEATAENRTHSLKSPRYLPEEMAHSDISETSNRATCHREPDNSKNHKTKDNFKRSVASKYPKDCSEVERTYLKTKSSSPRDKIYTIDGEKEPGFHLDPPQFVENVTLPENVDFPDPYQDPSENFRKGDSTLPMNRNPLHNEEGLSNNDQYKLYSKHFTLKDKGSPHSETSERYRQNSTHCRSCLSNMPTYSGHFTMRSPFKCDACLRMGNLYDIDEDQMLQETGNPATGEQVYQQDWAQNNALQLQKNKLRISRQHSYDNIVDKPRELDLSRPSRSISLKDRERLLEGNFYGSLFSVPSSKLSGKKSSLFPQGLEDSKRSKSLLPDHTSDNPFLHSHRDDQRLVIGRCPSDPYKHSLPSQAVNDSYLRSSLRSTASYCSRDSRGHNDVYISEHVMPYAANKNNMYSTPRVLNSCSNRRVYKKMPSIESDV
smiles,measurement,value
C[C@H](CCC[C@@H](C)O)[C@H]1CC[C@H]2[C@@H]3CC[C@H]4C[C@@](C)(O)CC[C@]4(C)[C@H]3CC[C@]12C [Compound 24],GluN2A PCA IWB Ephys % potentiation at 3 μM,B (“B” indicates potentiation of >100%)
